Measurements: US20140328893A1, “NUTLIN COMPOUNDS FOR USE IN THE TREATMENT OF PULMONARY HYPERTENSION” (Institut National de la Sante et de la Recherche Medicale …, priority 2011, published 2014)

What was measured:
cultured human PA-SMC [1] = test: PA-SMC proliferation (MTT); type: cell-based; conditions: 2.5-10 μM, 48 hours
Description: (§1) Cultured PA-SMCs were collected from pulmonary arteries of patients undergoing lung surgery for localized lung tumours. To determine the phenotypic characteristics of cultured PA-SMCs, the cells from each culture were assessed for expression of musclespecific contractile and cytoskeletal proteins, including smooth muscle cell α-actin and desmin.
To assess the effects of nutlin-3 on PASMC proliferation, cells were exposed to increasing concentration of nutlin-3a (2.5-10 μM) or vehicle in serum-free medium or in presence of PDGF-BB (50 ng/ml). After 48 hours, tetrazolium salt (MTT), (Sigma, Lyon, France) was added to each well (0.2 mg/ml). After 4 hours incubation at 37° C., the culture medium was removed and formazan crystals were solubilized by adding 500 μL of DMSO. Tetrazolium salt reduction to formazan within the cells was quantified by spectrophotometry at 520 nm.

p53 pathway [2] = test: Lung p53 and p21 levels in hypoxic mice (Western blotting, RT-qPCR); type: in vivo
Description: (§2) Nutlin-3 was administered at the increasing dosages of 6, 12, and 25 mg/Kg/day by intraperitoneal injection. At completion of treatment, lungs were removed and prepared for histological or Western blot analyses.
(§3) p53, p16, p21, caspase and MDM2 proteins were detected and measured in lung tissues and/or cells using Western blotting. Levels of p21, Bax, and PUMA mRNA in lung tissues and/or cells were determined using RT-qPCR. Total mRNA was extracted from lung tissues and PA-SMC using RNeasy Mini Kit (Qiagen, ZA Courtaboeuf, France). First-strand cDNA was synthesized in reversed transcribed samples, as follows: 1 μg total RNA isolated from cells or lung tissues, 200 U/μL SuperScrip II RT (Invitrogen, Life Technologies, Cergy-Pontoise, France), 100 ng Random primers and 10 mM mixed dNTP. Quantitative PCR was performed in a 7900HT Real-Time PCR system (Applied Biosystems, ZA Courtaboeuf, France), using SYBR green Mix from Invitrogen.

p53 pathway [3] = test: p53 pathway activation in cultured human PA-SMCs (Western blotting, RT-qPCR); type: cell-based; conditions: 2.5 to 10 μM
Description: as §1
(§4) To assess the effects of nutlin on cell senescence, the percentage of beta-galactosidase (β-gap)-positive cells was measured after 48 hours incubation with nutlin-3 in presence or absence of vehicle or PDGF. The amounts of p53, p16, and p21 proteins or mRNA were determined by western blotting o by RT-qPCR, respectively.
as §3

[4] = tested on: mice exposed to chronic hypoxia; test: Pulmonary hypertension in mice exposed to chronic hypoxia; type: in vivo
Description: (§5) Wild-type mice aged 15-20 weeks were randomly allocated to room air or chronic hypoxia. Transgenic animals expressing the human 5-HTT gene in smooth muscle (SM22-5-HTT+ mice) were produced as previously described. All animal care and procedures were in accordance with institutional guidelines.
as §2
Mice were exposed to chronic hypoxia (10% O2) in a ventilated chamber (Biospherix, N.Y., USA). The hypoxic environment was established by flushing the chamber with a mixture of room air and nitrogen, and the gas was recirculated. The chamber environment was monitored using an oxygen analyzer. Carbon dioxide was removed by soda lime granules, and excess humidity was prevented by cooling of the recirculation circuit. Normoxic mice were kept in the same room, with the same light-dark cycle.
Mice exposed previously to hypoxia or room air or SM22-5-HTT+ mice were anaesthetized. After incision of the abdomen, a 26-gauge needle connected to a pressure transducer was inserted into the right ventricle through the diaphragm, and right ventricular systolic pressure (RVSP) was recorded immediately. Then, the thorax was opened and the lungs and heart were removed. The right ventricle (RV) was dissected from the left ventricle plus septum (LV+S), and these dissected samples were weighed for determination of Fulton's index (RV/LV+S). The lungs were fixed by intratracheal infusion of 4% aqueous buffered formalin. A midsagittal slice of the right lung was processed for paraffin embedding. Sections 5 μm in thickness were cut and stained with hematoxylin-phloxine-saffron for examination by light microscopy. In each mouse, a total of 20 to 30 intraacinar vessels accompanying either alveolar ducts or alveoli were examined by an observer who was blinded to the treatment or genotype. Each vessel was categorized as nonmuscular (no evidence of vessel wall muscularization), partially muscular (smooth muscle cells [SMCs] identifiable in less than three-fourths of the vessel circumference), or fully muscular (SMCs in more than three-fourths of the vessel circumference). The percentage of pulmonary vessels in each muscularization category was determined by dividing the number of vessels in that category by the total number counted in the relevant group of animals. For fully muscular vessels, video images were obtained and arterial diameters were measured using computerized image-analysis software. Percent wall thickness was then calculated as the diameter of the external elastic lamina minus the diameter of the internal lamina divided by the diameter of the external elastic lamina.

SM22-5-HTT+ mice = test: Pulmonary hypertension in SM22-5-HTT+ mice; type: in vivo; conditions: 12 mg/Kg/day
Description: as §5, §2
Mice exposed previously to hypoxia or room air or SM22-5-HTT+ mice were anaesthetized. After incision of the abdomen, a 26-gauge needle connected to a pressure transducer was inserted into the right ventricle through the diaphragm, and right ventricular systolic pressure (RVSP) was recorded immediately. Then, the thorax was opened and the lungs and heart were removed. […] The percentage of pulmonary vessels in each muscularization category was determined by dividing the number of vessels in that category by the total number counted in the relevant group of animals. For fully muscular vessels, video images were obtained and arterial diameters were measured using computerized image-analysis software. Percent wall thickness was then calculated as the diameter of the external elastic lamina minus the diameter of the internal lamina divided by the diameter of the external elastic lamina.

p53 pathway [5] = test: Lung p53 and p21 levels in SM22-5-HTT+ mice (Western blotting, RT-qPCR); type: in vivo
Description: as §2, §3

cultured human PA-SMC [6] = test: PA-SMC senescence (beta-galactosidase-positive cells); type: cell-based; conditions: 48 hours incubation
Description: as §1, §4

[7] = tested on: p53-deficient (p53−/−) mice; test: Chronic hypoxia-induced pulmonary hypertension in p53-deficient mice; type: in vivo
Description: Normoxic mice were kept in the same room, with the same light-dark cycle.

[8] = chronic hypoxia mice, 6 to 25 mg/Kg/day intraperitoneally
[9] = mice, associated with protective effects

Compound | cell proliferation stimulated by 50 ng/ml PDGF (cultured human PA-SMC [1]; 50 ng/ml PDGF) | cell proliferation stimulated by 0.2% FCS (cultured human PA-SMC [1]; 0.2% FCS) | lung p21 mRNA (p53 pathway [2]) | lung p21 protein (p53 pathway [2]) | lung p53 protein (p53 pathway [2]) | mRNA level of p53 target gene Bax (p53 pathway [3]) | mRNA level of p53 target gene PUMA (p53 pathway [3]) | mRNA level of p53 target gene p21 (p53 pathway [3]) | p53 protein (p53 pathway [3]) | distal pulmonary artery muscularization [4, 8] | pulmonary hypertension [4, 8] | right ventricular hypertrophy [4, 8] | PA-SMC proliferation [4, 9] | apoptosis [4, 9] | PH in SM22-5-HTT+ mice (SM22-5-HTT+ mice) | lung p21 mRNA (p53 pathway [5]) | lung p21 protein (p53 pathway [5]) | lung p53 protein (p53 pathway [5]) | percentage of beta-galactosidase stained cells (senescent cells) (cultured human PA-SMC [6]) | pulmonary hypertension induced by chronic hypoxia in p53-deficient mice [7]
COc1ccc(C2=NC(c3ccc(Cl)cc3)C(c3ccc(Cl)cc3)N2C(=O)N2CCNC(=O)C2)c(OC(C)C)c1 (racemic) [Nutlin-3, (±)-4-[4,5-Bis(4-chlorophenyl)-2-(2-isopropoxy-4-methoxy-phenyl)-4,5-dihydro-imidazole-1-carbonyl]-piperazin-2-one] | dose-dependent inhibition | dose-dependent inhibition | marked increases | marked increases | marked increases | increased | increased | increased | increased | prevented | prevented | prevented | decrease | increase | partially reversed | marked increases | marked increases | marked increases | increase | –
COc1ccc(C2=N[C@@H](c3ccc(Cl)cc3)[C@@H](c3ccc(Cl)cc3)N2C(=O)N2CCNC(=O)C2)c(OC(C)C)c1 [nutlin-3a] | – | – | – | – | – | – | – | – | – | – | – | – | – | – | – | – | – | – | – | remained unaffected
